Measurements taken from PubChem BioAssay AID1963964 (Molecular Pharmacology Branch, DTP, NCI, 2024).
Several values for one entry are separate records, joined by “and”; a condition that tells them apart may be missing. Equal values may be shown once.

Test system: 997726-040-R-J2-PDC tumor spheroids, viability
Experiment: Anticancer human tumor 997726-040-R-J2-PDC patient-derived squamous cell lung carcinoma cell line growth inhibition [PI3K]
Details: spheroids with HUVEC and MSC; for viability, T/C: stronger effect = lower value
How it was run: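 High-throughput combination screen: PI3K inhibitors crossed with targeted small molecules on complex spheroids of tumor cells, HUVEC and MSCs at 37 degrees C, 5% CO2. Top concentration was at or near clinical Cmax (otherwise 10 microM), with half-log decrements.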

[1] = curve of first compound, second compound 0.0316 µM
[2] = curve of first compound, second compound 0.1 µM
[3] = curve of first compound, second compound 0.316 µM
[4] = curve of first compound, second compound 1 µM
[5] = second compound 0.0316 µM, first compound 0.0316 µM
[6] = second compound 0.0316 µM, first compound 0.1 µM
[7] = second compound 0.0316 µM, first compound 0.316 µM
[8] = second compound 0.0316 µM, first compound 1 µM
[9] = second compound 0.0316 µM, first compound 3.16 µM
[10] = second compound 0.0316 µM, first compound 10 µM
[11] = second compound 0.1 µM, first compound 0.0316 µM
[12] = second compound 0.1 µM, first compound 0.1 µM
[13] = second compound 0.1 µM, first compound 0.316 µM
[14] = second compound 0.1 µM, first compound 1 µM
[15] = second compound 0.1 µM, first compound 3.16 µM
[16] = second compound 0.1 µM, first compound 10 µM
[17] = second compound 0.316 µM, first compound 0.0316 µM
[18] = second compound 0.316 µM, first compound 0.1 µM
[19] = second compound 0.316 µM, first compound 0.316 µM
[20] = second compound 0.316 µM, first compound 1 µM
[21] = second compound 0.316 µM, first compound 3.16 µM
[22] = second compound 0.316 µM, first compound 10 µM
[23] = second compound 1 µM, first compound 0.0316 µM
[24] = second compound 1 µM, first compound 0.1 µM
[25] = second compound 1 µM, first compound 0.316 µM
[26] = second compound 1 µM, first compound 1 µM
[27] = second compound 1 µM, first compound 3.16 µM
[28] = second compound 1 µM, first compound 10 µM
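Further: spheroids exposed to compounds for seven days before readout.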

With `CCCS(=O)(=O)Nc1ccc(F)c(C(=O)c2c[nH]c3ncc(-c4ccc(Cl)cc4)cc23)c1F` + CC(Nc1ncnc2nc[nH]c12)c1cc2cccc(Cl)c2c(=O)n1-c1ccccc1 the IC50 [1] was 7.29 µM, the IC50 [2] was 7.37 µM and the IC50 [3] was 7.39 µM. It also gave an IC50 [4] of 7.17 µM, an IC50 (curve of first compound, second compound 3.16 µM) of 5.94 µM and an IC50 (curve of first compound, second compound 10 µM) of 4.43 µM. The viability, T/C [5] was 104%, the viability, T/C [6] was 103% and the viability, T/C [7] was 128%. It also gave a viability, T/C [8] of 137%, a viability, T/C [9] of 162% and a viability, T/C [10] of 20.9%. The viability, T/C [11] was 107%, the viability, T/C [12] was 116% and the viability, T/C [13] was 110%. It also gave a viability, T/C [14] of 121%, a viability, T/C [15] of 166% and a viability, T/C [16] of 23.1%. It also gave a viability, T/C [17] of 103%, a viability, T/C [18] of 102% and a viability, T/C [19] of 114%. It also gave a viability, T/C [20] of 138%, a viability, T/C [21] of 169% and a viability, T/C [22] of 23.1%. The viability, T/C [23] was 102%, the viability, T/C [24] was 95.5% and the viability, T/C [25] was 109%. The viability, T/C [26] was 126%, the viability, T/C [27] was 146% and the viability, T/C [28] was 23%. It also gave a viability, T/C (second compound 3.16 µM, first compound 0.0316 µM) of 71.1%, a viability, T/C (second compound 3.16 µM, first compound 0.1 µM) of 80% and a viability, T/C (second compound 3.16 µM, first compound 0.316 µM) of 83.9%. It also gave a viability, T/C (second compound 3.16 µM, first compound 1 µM) of 85.4%, a viability, T/C (second compound 3.16 µM, first compound 3.16 µM) of 107% and a viability, T/C (second compound 3.16 µM, first compound 10 µM) of 20.5%. The viability, T/C (second compound 10 µM, first compound 0.0316 µM) was 53.7%, the viability, T/C (second compound 10 µM, first compound 0.1 µM) was 57.2% and the viability, T/C (second compound 10 µM, first compound 0.316 µM) was 60.1%. For the same compound, the viability, T/C (second compound 10 µM, first compound 1 µM) was 60.4%, the viability, T/C (second compound 10 µM, first compound 3.16 µM) was 82.6% and the viability, T/C (second compound 10 µM, first compound 10 µM) was 19.3%.
In the case of `CC1(C)CCC(Nc2ncc(C(F)(F)F)c(-c3c[nH]c4c(P(C)(C)=O)c(C#N)ccc34)n2)CN1` (stereo not drawn), the viability, T/C (compound 0.0316 µM) is reported as 45.6% [middle of 4 runs], the viability, T/C (compound 0.1 µM) is reported as 42.6% [middle of 4 runs] and the viability, T/C (compound 0.316 µM) is reported as 48% [middle of 4 runs]. The viability, T/C (compound 1 µM) was 44% [middle of 4 runs] and the viability, T/C (compound 10 µM) was 23.3% [middle of 4 runs].
`CC1(C)CCC(CN2CCN(c3ccc(C(=O)NS(=O)(=O)c4ccc(NCC5CCOCC5)c([N+](=O)[O-])c4)c(Oc4cnc5[nH]ccc5c4)c3)CC2)=C(c2ccc(Cl)cc2)C1` + COc1c(OCCCN2CCOCC2)ccc2c3n(c(=NC(=O)c4cnc(N)nc4)nc12)CCN3 gave an IC50 (curve of first compound, second compound 0.00316 µM) of 6.89 µM, an IC50 (curve of first compound, second compound 0.01 µM) of 4.2 µM and an IC50 [1] of less than 0.0316 µM. The IC50 [2] was less than 0.0316 µM, the IC50 [3] was less than 0.0316 µM and the IC50 [4] was less than 0.0316 µM. For the same compound, the viability, T/C (second compound 0.00316 µM, first compound 0.0316 µM) was 75.4%, the viability, T/C (second compound 0.00316 µM, first compound 0.1 µM) was 77.4% and the viability, T/C (second compound 0.00316 µM, first compound 0.316 µM) was 74.3%. The viability, T/C (second compound 0.00316 µM, first compound 1 µM) was 81.1%, the viability, T/C (second compound 0.00316 µM, first compound 3.16 µM) was 78.2% and the viability, T/C (second compound 0.00316 µM, first compound 10 µM) was 36.9%. It also gave a viability, T/C (second compound 0.01 µM, first compound 0.0316 µM) of 62%, a viability, T/C (second compound 0.01 µM, first compound 0.1 µM) of 64.6% and a viability, T/C (second compound 0.01 µM, first compound 0.316 µM) of 68.4%. For the same compound, the viability, T/C (second compound 0.01 µM, first compound 1 µM) was 60.7%, the viability, T/C (second compound 0.01 µM, first compound 3.16 µM) was 57.4% and the viability, T/C (second compound 0.01 µM, first compound 10 µM) was 28.9%. For the same compound, the viability, T/C [5] was 35.3%, the viability, T/C [6] was 36.5% and the viability, T/C [7] was 37.8%. The viability, T/C [8] was 37.7%, the viability, T/C [9] was 34.3% and the viability, T/C [10] was 21.2%. It also gave a viability, T/C [11] of 23.1%, a viability, T/C [12] of 22.9% and a viability, T/C [13] of 21.8%. For the same compound, the viability, T/C [14] was 23%, the viability, T/C [15] was 20.6% and the viability, T/C [16] was 9.14%. It also gave a viability, T/C [17] of 4.52%, a viability, T/C [18] of 6.09% and a viability, T/C [19] of 3.55%. The viability, T/C [20] was 3.55%, the viability, T/C [21] was 3.34% and the viability, T/C [22] was 2.27%. It also gave a viability, T/C [23] of 1.34%, a viability, T/C [24] of 1.27% and a viability, T/C [25] of 0.77%. It also gave a viability, T/C [26] of 0.81%, a viability, T/C [27] of 1.49% and a viability, T/C [28] of 1.38%.
`CC(Nc1ncnc2nc[nH]c12)c1cc2cccc(Cl)c2c(=O)n1-c1ccccc1` (stereo not drawn) was tested, and the viability, T/C (compound 0.0316 µM) was 106% [middle of 8 runs], the viability, T/C (compound 0.1 µM) was 99.4% [middle of 8 runs] and the viability, T/C (compound 0.316 µM) was 94.3% [middle of 8 runs]. For the same compound, the viability, T/C (compound 1 µM) was 86.6% [middle of 8 runs], the viability, T/C (compound 3.16 µM) was 70.8% [middle of 8 runs] and the viability, T/C (compound 10 µM) was 54.7% [middle of 8 runs]. The IC50 (compound alone, run of 06/13/2023) was > 10 µM and 9.01 µM.
In the case of `Cn1nccc1Nc1nccc(-c2ccn(C(CO)c3ccc(Cl)c(F)c3)c(=O)c2)n1` (stereo not drawn), the viability, T/C (compound 0.0316 µM) is reported as 93.2% [middle of 4 runs], the viability, T/C (compound 0.1 µM) is reported as 78.7% [middle of 4 runs] and the viability, T/C (compound 0.316 µM) is reported as 73.9% [middle of 4 runs]. For the same compound, the viability, T/C (compound 1 µM) was 61.8% [middle of 4 runs], the viability, T/C (compound 3.16 µM) was 61.6% [middle of 4 runs] and the viability, T/C (compound 10 µM) was 58.1% [middle of 4 runs]. The IC50 (curve of compound) was greater than 10 µM.
